According to patent publication US5082857A, “Chemical compound” (Kyowa Hakko Kogyo Kabushiki Kaisha, priority 1989, dated 1992):
≈ marks a conversion by molar mass, not a printed value.

Experiments:
Sarcoma 180 tumour cells = test: Curing effect on Sarcoma 180 tumour cells; assay type: in vivo, female mice of ddy strain; details: i.v., 5 times at 24 h intervals, 10 days after inoculation
Protocol: As test animals, female mice of ddy strain (body weight about 20 g; each group consisting of 6 mice) were used. 5×10^6 Sarcoma 180 tumour cells were, on each occasion, inoculated into the animal under the skin of the armpit. From the first to 5th days after this, a dose of phosphate-buffered physiological saline (PBS; 0.2 ml) containing a given concentration of DC114-C as shown in Table 3 was intravenously given to the test animal. The administration was effected 5 times with an interval of 24 hours between each. […] 10 days after inoculation, T/C values viz. the ratio of the average volume (mm^3) of the tumours found on the animals treated with the test compounds to the corresponding volume found on the untreated animals were measured and these are shown in the following Table 3.

[1] = tested on: Enterococcus faecium ATCC 10541; test: Anti-bacterial activity, MIC by agar dilution method; assay type: cell-based; details: ATCC10541, pH 7.0, read-out: minimum inhibitory concentration (MIC)
Text: (§1) The following Table 1 indicates minimum inhibitory concentration (MIC) of DC114-C against selected microorganisms, measured by the agar dilution method at pH 7.0.

[2] = tested on: Bacillus subtilis No. 10707; test: as above; assay type: cell-based; details: pH 7.0, read-out: minimum inhibitory concentration (MIC)
Text: as §1

[3] = tested on: Klebsiella pneumoniae ATCC 10031; test: as above; assay type: cell-based; details: ATCC10031, pH 7.0, read-out: minimum inhibitory concentration (MIC)
Text: as §1

[4] = tested on: Salmonella typhi ATCC 9992; test: as above; assay type: cell-based; details: Salmonella enterica, pH 7.0, read-out: minimum inhibitory concentration (MIC)
Text: as §1

[5] = tested on: Staphylococcus aureus ATCC 6538P; test: as above; assay type: cell-based; details: ATCC6538P, pH 7.0, read-out: minimum inhibitory concentration (MIC)
Text: as §1

in vivo = details: mouse, iv
[6] = Solubility in various solvents
Balb 3T3/H-ras cells = test: Growth inhibition against Balb 3T3/H-ras cells (neutral red); assay type: cell-based; details: Mus musculus, BALB/3T3, read-out: IC50 (concentration required for 50% inhibition of the growth of the cells); 72 hours, 37° C.
Protocol: Into each well of a 96 well microtitre plate was poured a Balb 3T3/H-ras cell suspension (each 0.1 ml), containing 2×10^4 cell/ml and prepared by suspending the cells in medium A. Medium A was prepared by adding to F10 medium (commercial product of Gibco) fetal calf serum (0.1 g/ml), penicillin (100 Unit/ml) and streptomycin (100 μg/ml).
On each occasion, the plate was incubated at a temperature of 37° C. for 20 hours in a carbon dioxide incubator. Then a test sample of DC114-C was suitably diluted with medium A. The diluted sample (0.05 ml) was added to each well, followed by incubation at a temperature of 37° C. for 72 hours in the incubator. After this, the supernatant was removed from the medium. Another medium (each 0.1 ml), prepared by adding to medium A neutral red (0.02%), was added to each well. The cells were dyed by incubation at a temperature of 37° C. for one hour in the incubator.
The supernatant was removed and the residue was washed once with physiological saline. After removal of the dyestuff by using a mixture of 0.001N hydrochloric acid and 30% ethanol, a micro-plate reader was applied to the material to measure the absorbance at 550 nm. The following Table 2 indicates the results obtained by comparing the absorbance of untreated cells with the absorbance of the test sample measured at various concentrations.

Compound: Cc1cc2c(O)c3c(cc2c2oc(C4(C)OC4C4CO4)cc(=O)c12)C(=O)C1OC1(C1CC(=O)C(O)C(C)O1)C3O (stereo not shown) [DC114-C]
- T/C (ratio of average tumour volume, treated to untreated) (Sarcoma 180 tumour cells; 0.78 mg/kg each): 0.56
- T/C (ratio of average tumour volume, treated to untreated) (Sarcoma 180 tumour cells; 1.56 mg/kg each): 0.48
- T/C (ratio of average tumour volume, treated to untreated) (Sarcoma 180 tumour cells; 3.13 mg/kg each): 0.26
- T/C (ratio of average tumour volume, treated to untreated) (Sarcoma 180 tumour cells; 6.25 mg/kg each): 0.15
- MIC [1]: 0.13 µg/mL (≈ 0.236 µM)
- MIC [2]: 0.26 µg/mL (≈ 0.472 µM)
- MIC [3]: 4.2 µg/mL (≈ 7.63 µM)
- MIC [4]: 8.3 µg/mL (≈ 15.1 µM)
- MIC [5]: 0.07 µg/mL (≈ 0.127 µM)
- LD50 (in vivo): 17.6 mg/kg
- Solubility in chloroform, dimethylsulfoxide (DMSO), methanol, ethyl acetate and acetone ([6]; chloroform, DMSO, methanol, ethyl acetate, acetone): Readily soluble
- Solubility in water and n-hexane ([6]; water, n-hexane): Hardly soluble
- IC50 (Balb 3T3/H-ras cells): 0.06 µg/mL (≈ 0.109 µM)
